Tests used:
G361 melanoma cells = assay: FGFR inhibitor abrogation of factor-mediated resistance (GFP, rScore); assay type: cell-based, human; conditions: vemurafenib 2 μM; EMAPII or AIMP1 10 ng/ml; FGFR inhibitor 0.5 μM
Experimental: PLX4720—BRAFi, 2 μM; PD184352—MEKi, 1 μM, EMAPII—50 ng/ml. P-value of the difference between GFP(drug)/GFP(no-treatment) and GFP(drug+EMAPII)/GFP(no-treatment), at day 7, was calculated by two-sided t-test. ** p<0.01, *** p<0.001. Average rScore (+/−SE) was calculated from at least four different experiments. […] A total of 69 experiments are shown. […] The effect of FGF2 (10 ng/ml), EMAPII (10 ng/ml) or AIMP1 (10 ng/ml) on G361 μmelanoma cells treated with vemurafenib (2 μM) was measured with or without the FGFR inhibitor PD17307 (0.5 μM). Data represent an average of 4 to 8 experiments. P-value was calculated by two-sided t-test. *** p<0.001. Error bars represent standard error. […] 18 putative AIMP1 receptors were knocked down by shRNAs (on average 6.8 shRNAs/gene) in the G361 cell line. shRNAs toward luciferase served as a negative control. The effect of AIMP1 (50 ng/ml) on the sensitivity to PLX4720 (2 μM) was tested in all knockdown clones and normalized to no-shRNA control. Results represent the average of 3-8 experiments. Error bars represent standard error. P-values were calculated by two-sided t-test relative to luciferase. * p<0.05, Q-value=0.1. […] The average of 4 experiments is presented. Error bars represent standard error. P-value was calculated by two-sided t-test. *** p<0.001.

HCC4006 xenografts = assay: EVOC viability; assay type: cell-based, human; conditions: crizotinib 8 μM added to erlotinib 4 μM
Experimental: Vehicle—DMSO, METi-crizotinib 8 μM, EGFRi—erlotinib 4 μM. Each black dot in a given treatment condition represents a different tumor. P-values were calculated by one-sided t-test. * P<0.05. Error bars represent standard error. […] Viability percentage is presented per treatment. Scale bar represents 50 μm.
Freshly resected tumors were cut to 250 μm slices (Compresstome, VF-300) in cold Williams-E medium (Sigma, W1878). Slices were placed on the surface of titanium meshes which were pre-incubated in DMEM/F-12 (HAM) (01-170-1A, BI) supplemented with 10% FCS, 100 units/ml Penicillin and Streptomycin, 2 μmM Glutamine, […], and 2.5 μg/ml Amphotericin B (sigma, A2942), at 37° C. and 80% oxygen/5% CO2. […]
Immunohistochemistry of EVOC tissues: To assess response therapy, 4 μm FFPE tissue slices were stained with H&E, or with specific antibodies: anti-pERK (Cell Signaling, #4370) followed by HRP conjugated secondary antibody (anti-Rabbit HRP, ZUC032, ZytoChem) and DAB staining (DAB substrate kit, DAB057, ZytoChem). […] All slides were scanned using the Pannoramic SCAN II (3[…]) and analyzed by a pathologist. The percentage of viable cancer cells was morphologically assessed on H&E stained sections by a pathologist as the ratio between viable cancer cell area and total cancer area (viable cancer cells plus necrotic cancer cells).

human NSCLC tumor biopsy = assay: EVOC of NSCLC patient biopsies, viability; assay type: cell-based; conditions: treatment-naïve patient; in combination with osimertinib 4 μM
Description: Error bars represent standard error. […] Scale bar represents 50 μm. […] Error bars represent standard error. […] Scale bar represents 50 μm.
Scale bar represents 50 μm. […] Scale bar represents 50 μm. […] Scale bar represents 50 μm.

H1975 xenografts = assay: EVOC viability; assay type: cell-based, human; conditions: added to afatinib 3-4 μM
Experimental: Vehicle—DMSO, FGFRi—AZD4547 2-4 μM, INSRi—linsitinib 2 μM, METi—crizotinib 2-4 μM, EGFRi—afatinib 3-4 μM. Each black dot in a given treatment condition represents a different tumor. P-values were calculated by two-sided t-test. ** P<0.01, * P<0.05. Error bars represent standard error. […] Viability percentage is given per treatment combination. Scale bar represents 50 μm. […] Error bars represent standard error. […] EGFRi—gefitinib 1.6 μM, FGFRi—AZD4547 0.2 μM. The percentage of viable cancer cells was morphologically assessed on H&E stained sections by a pathologist as the ratio between viable cancer cell area and total cancer area (viable cancer cells plus necrotic cancer cells). […] Viability score was calculated based on the entire field of view. […]
Immunohistochemistry of EVOC tissues: To assess response therapy, 4 μm FFPE tissue slices were stained with H&E, or with specific antibodies: anti-pERK (Cell Signaling, #4370) followed by HRP conjugated secondary antibody (anti-Rabbit HRP, ZUC032, ZytoChem) and DAB staining (DAB substrate kit, DAB057, ZytoChem). […] All slides were scanned using the Pannoramic SCAN II (3[sequence]) and analyzed by a pathologist. The percentage of viable cancer cells was morphologically assessed on H&E stained sections by a pathologist as the ratio between viable cancer cell area and total cancer area (viable cancer cells plus necrotic cancer cells).

[1] = test system: SK-MEL-5 BRAF (V600E) melanoma cells; assay: Co-culture of stroma (WI-38 or HS-5) and cancer cells; assay type: cell-based, human; conditions: co-culture with WI-38; inhibitor added to vemurafenib
Experimental: SK-MEL-5 BRAF (V600E) melanoma cells were co-cultured with the lung-derived stromal cell line WI-38 or with the bone marrow-derived stromal cell line HS-5 with or without vemurafenib (4 μM). […] Vehicle—DMSO, EGFRi—gefitinib (0.1 μM), EGFRi/HER2i—lapatinib (10 nM), METi—crizotinib (0.1 μM), FGFRi—AZD4547 (50 nM), NFkB/TNFRi—CAPE (10 μM), TGFBRi-LY2109761 (0.5 μM), gp130i—SC144 (1 nM). […] Error bars represent standard error. […] Error bars represent standard error. […] Human BRAF (V600E) melanoma cell lines UACC62 or G361 were used to generate xenograft tumor models in various tissues of nude mice. When tumors reached a volume of 500-700 μmm^3, they were resected, sliced, and cultured ex-vivo in the presence of different drug combinations or DMSO control. Following 4 days of drug treatment, slices were fixed, embedded in paraffin blocks, and subjected to immunohistochemistry, using anti-pERK antibody, or to immuno-fluorescence, using anti-pFGFR1 antibody. BRAFi (vemurafenib, 4 μM), FGFRi (AZD4547, 2 μM). Scale bar represents 50 μm.
Four hours later, the melanoma BRAF (V600E) mutated cell line SK-MEL-5 was seeded on top of the stromal cells at a concentration of 1700 cells per well, or seeded without stroma. […] Concentrations of the inhibitors were based on dose curves with SK-MEL-5. For each inhibitor of potential mechanism of resistance, the maximal concentration with minimal effect (toxicity) on cell growth was selected (Cmax).
To compare rScore value of stroma-mediated resistance with or without a given inhibitor, the rScore values of each inhibitor in the presence of stroma, was calculated. As a reduction in rScore may stem from mere toxicity of the inhibitor, rather than the abrogation of the stroma mediated resistance, each inhibitor rScore was penalized by its toxicity.
rScoreinhibitor=rScoreinhibitor+(rScorestroma−rScoreinhibitor)*tOxicitY(Cmax)inhibitor

| Structure (SMILES) | abrogation of EMAPII/AIMP1-mediated resistance (G361 melanoma cells) | innate resistance to EGFRi (HCC4006 xenografts) | cancer cell viability (human NSCLC tumor biopsy) | cell viability (H1975 xenografts) | abrogation of stroma-mediated resistance to vemurafenib [1] |
| --- | --- | --- | --- | --- | --- |
| CCN(CC)CCCCNc1ncc2cc(-c3cc(OC)cc(OC)c3)c(NC(=O)NC(C)(C)C)nc2n1 [PD17307] | abrogates EMAPII/AIMP1-mediated resistance |  |  |  |  |
| C[C@@H](Oc1cc(-c2cnn(C3CCNCC3)c2)cnc1N)c1c(Cl)ccc(F)c1Cl [crizotinib] |  | reduced innate resistance to the EGFRi erlotinib | synergistic killing effect | significantly reduced cell viability | abrogated the resistance effect of WI-38 |
